Measured values reported in publication PMC9062088 (RSC Advances, 2019).

Key:
[1] = molecular target: T1, human TyrRS (Homo sapiens, UniProt P54577); test: ATP–pyrophosphate exchange assay; type: biochemical; details: for remaining activity at 100 µM: read-out: Enzyme activity@100 μM (%); for inhibitory effect on human TyrRS (SAR statement in words): 100 μM screening data of Tables 1 and 2
T1 sequence (P54577 1-341): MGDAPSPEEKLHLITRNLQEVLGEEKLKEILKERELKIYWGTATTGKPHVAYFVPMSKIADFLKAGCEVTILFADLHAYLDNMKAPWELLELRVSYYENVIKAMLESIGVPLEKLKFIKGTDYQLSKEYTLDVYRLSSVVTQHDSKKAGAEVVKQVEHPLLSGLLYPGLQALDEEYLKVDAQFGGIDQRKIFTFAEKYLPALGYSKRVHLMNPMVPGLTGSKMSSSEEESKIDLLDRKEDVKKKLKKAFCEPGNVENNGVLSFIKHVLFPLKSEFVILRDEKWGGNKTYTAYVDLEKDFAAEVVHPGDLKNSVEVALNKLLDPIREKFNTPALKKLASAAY

[2] = system: HeLa cells; test: Detection of DNA damage in cells; type: cell-based, human; details: pre-treated 24 h (0.37-30 μM), then 30 μM cisplatin 24 h, immunoblot
[3] = system: HeLa cells; test: Cellular localization of TyrRS; type: cell-based, human; details: HeLa cells, 1.1, 3.3, 10 or 30 μM, 8 h, immunoblot

remaining activity at 100 µM [1]	inhibitory effect on human TyrRS (SAR statement in words) [1]	Compound	level of γ-H2A.X (DNA damage) [2]	TyrRS nuclear localization [3]
76.4%		COc1cc(O)c(Sc2ccc(F)cc2)c2oc(-c3ccccc3)cc(=O)c12 [Compound 16]		
68.5%		COc1cc(O)c(Sc2cccc(F)c2)c2oc(-c3ccccc3)cc(=O)c12 [Compound 15]		
81.9%		O=c1cc(-c2ccccc2)oc2c(Sc3ccccc3O)c(O)cc(O)c12 [Compound 29]		
93.2%		O=c1cc(-c2ccccc2)oc2c(Sc3cccc(O)c3)c(O)cc(O)c12 [Compound 26]		
73.8%		COc1cc(O)c(Sc2ccccc2F)c2oc(-c3ccccc3)cc(=O)c12 [Compound 18]		

Continued, compound first:

Compound	remaining activity at 100 µM [1]	inhibitory effect on human TyrRS (SAR statement in words) [1]	level of γ-H2A.X (DNA damage) [2]	TyrRS nuclear localization [3]
COc1ccc(Sc2c(O)cc(OC)c3c(=O)cc(-c4ccccc4)oc23)cc1 [Compound 21]	73.9%			
CC(C)(C)c1ccc(Sc2c(O)c(Sc3ccc(C(C)(C)C)cc3)c3oc(-c4ccccc4)cc(=O)c3c2O)cc1 [Compound 9]	85.3%	substantially diminished activity		
Cc1ccccc1Sc1c(O)c(Sc2ccccc2C)c2oc(-c3ccccc3)cc(=O)c2c1O [Compound 8]	75.9%	substantially diminished activity		
COc1ccccc1Sc1c(O)c(Sc2ccccc2OC)c2oc(-c3ccccc3)cc(=O)c2c1O [Compound 3]	88.9%	substantially diminished activity		
O=c1cc(-c2ccccc2)oc2c(Sc3cccc(O)c3)c(O)c(Sc3cccc(O)c3)c(O)c12 [Compound 11, 5,7-dihydroxy-6,8-bis((3-hydroxyphenyl)thio)-2-phenyl-4H-chromen-4-one]			dramatically decreased	dramatically promoted the nuclear localization of TyrRS
